The record followed here is patent US20260325533A1, “CDK INHIBITOR COMPOUNDS” (ALEKSIA THERAPEUTICS, INC., priority 2023, published 2026).

Format in all cases: biochemical
One assay addresses CDK2/CCNE1 (Homo sapiens, UniProt P24941). Put plainly: CDK2 homogeneous time-resolved fluorescence (HTRF) kinase assay. Put shortly:
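Compounds were titrated 11-point, half-log from typically 10 μM against 3 nM CDK2/cyclin E1 at 1 mM ATP, with a 20 min enzyme preincubation. Phosphorylation of 50 nM ULight-4E-BP1 peptide over 60 min at 23 °C was detected by europium anti-phospho antibody TR-FRET.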

Another assay concerns the target CDK1/CCNB1 (Homo sapiens, UniProt P06493). Put plainly: CDK1 homogeneous time-resolved fluorescence (HTRF) kinase assay. Put shortly:
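CDK1/CCNB1 0.5 nM + cpd, 20 min 23 °C; add 1 mM ATP, 50 nM ULight-4E-BP1 peptide, 60 min 23 °C; stop 10 mM EDTA; 2 nM Eu-Ab, 60 min; HTRF 665 nm. 11-pt half-log, top 10 μM typical; IC50.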

Another assay concerns the target CDK6/CCND1 (Homo sapiens, UniProt Q00534). Description: CDK6 homogeneous time-resolved fluorescence (HTRF) kinase assay. Conditions: CDK6/CCND. Here is the method: A CDK homogeneous time-resolved fluorescence (HTRF) assay was used to assess the potency of the compounds described herein.
To an untreated 384-well microtiter plate (ProxiPlate) was added 100 nL 100×test compound in DMSO and 5 μL 2×CDK enzyme in assay buffer (50 mM HEPES, 1 mM EGTA, 10 mM MgCl2, 0.01% Tween 20, 2 mM DTT). The plate was centrifuged at 800 RPM for 1 min then incubated for 20 min at 23 °C. 2.5 μL per well of 4×ATP and 2.5 μL 4×ULight™-eIF4E-binding protein 1 (Thr37/46) Peptide substrate were added to all wells. After addition, the plates were centrifuged at 800 RPM for 1 min. The plates were incubated at 23 °C for 60 min. 5 μL per well 4×EDTA solution were added to each well to stop the reaction. 5 μL 4×LANCE Ultra Europium-anti-phospho-eIF4E-binding protein 1 (Thr37/46) antibody were added to each well and the plate was centrifuged for 1 min at 800 RPM. The plate was incubated for 60 min at 23 °C. Fluorescence was read at 340 nm excitation and 665 nm emission on an EnVision 2105 fluorescence reader. The final concentrations of reagents in the activity assay were 1 nM CDK6/CCND1, 1 mM ATP, 50 nM ULight™-eIF4E-binding protein 1 (Thr37/46) Peptide substrate, 1% DMSO, 10 mM EDTA, and 2 nM LANCE Ultra Europium-anti-phospho-eIF4E-binding protein 1 (Thr37/46).
Dose-response titrations were conducted by using an 11-point, half-logarithmic serial dilution scheme typically starting at 10 μM. Signals were reported as fluorescence units at 665 nm or the ratio of fluorescence units at 665 nm/fluorescence units at 615 nm. Signals are referred to below as “Lance signals”.
Using this assay, the IC50 values of example compounds were determined. Table 3 illustrates the IC50 for various Example compounds of Formula IA. Table 4 illustrates the IC50 for various other Example compounds of Formula I. ND=not determined.

Where [1] appears, read: CDK2/CCNE, >250 nM marked x, read-out: CDK2/CCNE IC50 >250 nM.
The mark [2] stands for this setting: CDK1/CCNB, >250 nM marked x, read-out: CDK1/CCNB IC50 >250 nM.
[3] abbreviates: >250 nM marked x, read-out: CDK6/CCND IC50 >250 nM.
Setting [4] is: x = IC50 25-250 nM, read-out: CDK6/CCND IC50 (25-250 nM).
[5] abbreviates: x = IC50 >250 nM, read-out: CDK6/CCND IC50 (>250 nM column).
Setting [6] is: 3 nM CDK2/CCNE1, 1 mM ATP, read-out: CDK2/CCNE IC50 >250 nM.
Where [7] appears, read: 0.5 nM CDK1/CCNB1, 1 mM ATP, read-out: CDK1/CCNB IC50 >250 nM.
Setting [8] is: 3 nM CDK2/CCNE1, 1 mM ATP, read-out: CDK2/CCNE IC50 25-250 nM.

pIC50: −log10 of the molar value. Where two headings read alike, the source gives them in different places.

Chain of CDK1/CCNB1 (P06493 whole entry): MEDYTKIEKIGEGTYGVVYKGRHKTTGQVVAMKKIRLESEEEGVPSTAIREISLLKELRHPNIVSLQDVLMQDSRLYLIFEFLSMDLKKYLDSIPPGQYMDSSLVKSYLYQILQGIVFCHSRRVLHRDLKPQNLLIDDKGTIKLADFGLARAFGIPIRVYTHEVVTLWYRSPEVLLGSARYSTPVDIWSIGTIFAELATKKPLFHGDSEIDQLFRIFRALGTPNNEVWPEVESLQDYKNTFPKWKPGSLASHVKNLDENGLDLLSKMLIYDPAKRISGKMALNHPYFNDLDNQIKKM
Chain of CDK1/CCNB1 (P14635 whole entry partner): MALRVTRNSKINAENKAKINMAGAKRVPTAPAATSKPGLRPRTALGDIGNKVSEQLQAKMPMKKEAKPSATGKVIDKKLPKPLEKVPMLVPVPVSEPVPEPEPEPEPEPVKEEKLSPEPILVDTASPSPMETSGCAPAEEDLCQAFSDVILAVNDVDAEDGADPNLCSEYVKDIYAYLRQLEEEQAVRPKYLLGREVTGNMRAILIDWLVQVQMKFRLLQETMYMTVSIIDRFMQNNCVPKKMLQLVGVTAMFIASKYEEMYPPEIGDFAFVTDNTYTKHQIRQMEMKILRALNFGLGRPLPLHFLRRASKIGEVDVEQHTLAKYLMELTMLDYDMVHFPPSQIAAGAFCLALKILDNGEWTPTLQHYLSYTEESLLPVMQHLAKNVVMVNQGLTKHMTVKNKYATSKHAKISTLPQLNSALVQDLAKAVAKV
Chain of CDK6/CCND1 (Q00534 whole entry): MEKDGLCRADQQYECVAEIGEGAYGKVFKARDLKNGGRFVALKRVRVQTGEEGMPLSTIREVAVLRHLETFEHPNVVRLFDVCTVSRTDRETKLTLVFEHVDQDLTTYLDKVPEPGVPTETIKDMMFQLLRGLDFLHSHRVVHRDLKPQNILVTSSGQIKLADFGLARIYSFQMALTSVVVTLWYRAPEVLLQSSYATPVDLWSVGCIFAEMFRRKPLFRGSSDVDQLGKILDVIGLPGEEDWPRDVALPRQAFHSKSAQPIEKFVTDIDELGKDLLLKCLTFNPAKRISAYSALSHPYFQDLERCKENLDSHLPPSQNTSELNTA
Chain of CDK6/CCND1 (P24385 whole entry partner): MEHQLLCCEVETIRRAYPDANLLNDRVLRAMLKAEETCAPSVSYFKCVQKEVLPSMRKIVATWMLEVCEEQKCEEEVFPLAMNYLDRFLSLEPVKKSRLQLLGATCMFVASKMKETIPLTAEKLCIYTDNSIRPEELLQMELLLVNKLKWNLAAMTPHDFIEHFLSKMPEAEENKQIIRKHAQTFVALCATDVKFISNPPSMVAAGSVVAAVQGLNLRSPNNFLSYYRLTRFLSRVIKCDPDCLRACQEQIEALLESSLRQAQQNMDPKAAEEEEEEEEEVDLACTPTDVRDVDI

On to `CS(=O)(=O)N1CCC(Nc2cc3c(C(=O)N4CCCC(O)C4)nccc3cn2)CC1` (racemic) [Ex 95, (3-hydroxypiperidin-1-yl)(7-((1-(methylsulfonyl)piperidin-4-yl)amino)-2,6-naphthyridin-1-yl)methanone], for which the pIC50 on CDK2/CCNE1 (setting [1]) is < 6.60; at CDK1/CCNB1 (setting [2]), < 6.60; at CDK6/CCND1 (<25 nM, read-out: CDK6/CCND IC50 <25 nM), > 7.60.

Consider `CC(C)S(=N)(=O)c1ccc(Nc2cc3c(C#Cc4ccc5c(c4)NC(=O)C5(C)CCO)nccc3cn2)cc1` (single isomer, unassigned) [Ex 287, 3-(2-hydroxyethyl)-3-methyl-6-((7-((4-(propan-2-ylsulfonimidoyl)phenyl)amino)-2,6-naphthyridin-1-yl)ethynyl)indolin-2-one], for which the pIC50 on CDK6/CCND1 (setting [3]) was < 6.60.

Consider `CC(C)S(=N)(=O)c1ccc(Nc2cc3c(C#Cc4ccc5c(c4)NC(=O)C5(C)O)nccc3cn2)cc1` (single isomer, unassigned) [Ex 292, 3-hydroxy-3-methyl-6-((7-((4-(propan-2-ylsulfonimidoyl)phenyl)amino)-2,6-naphthyridin-1-yl)ethynyl)indolin-2-one], for which the pIC50 at CDK6/CCND1 (setting [3]) is < 6.60. Regarding `CS(=N)(=O)c1ccc(Nc2cc3c(C#Cc4ccc5c(c4)NC(=O)C54CC4)nccc3cn2)cc1` (single isomer, unassigned) [Ex 359, 6'-((7-((4-(S-methylsulfonimidoyl)phenyl)amino)-2,6-naphthyridin-1-yl)ethynyl)spiro[cyclopropane-1,3'-indolin]-2'-one], the pIC50 on CDK6/CCND1 (setting [4]) is 6.60 to 7.60. The same measure, in the same setting: as for `N=S(=O)(c1ccc(Nc2cc3c(C#Cc4ccc5c(c4)NC(=O)C54CCC4)nccc3cn2)cc1)C1CC1` (single isomer, unassigned) [Ex 365, 6'-((7-((4-(cyclopropanesulfonimidoyl)phenyl)amino)-2,6-naphthyridin-1-yl)ethynyl)spiro[cyclobutane-1,3'-indolin]-2'-one], the figure is 6.60 to 7.60. On to `CCS(=N)(=O)c1ccc(Nc2cc3c(C#Cc4ccc5c(c4)NC(=O)C54CCC4)nccc3cn2)cc1` (single isomer, unassigned) [Ex 367, 6'-((7-((4-(ethylsulfonimidoyl)phenyl)amino)-2,6-naphthyridin-1-yl)ethynyl)spiro[cyclobutane-1,3'-indolin]-2'-one], for which, on CDK6/CCND1 (setting [5]), the pIC50 is < 6.60. As for `CC1(C)C(=O)Nc2cc(C#Cc3nccc4cnc(Nc5ccc(S(C)(=N)=O)cc5)cc34)ccc21` (single isomer, unassigned) [Ex 452, 3,3-dimethyl-6-((7-((4-(S-methylsulfonimidoyl)phenyl)amino)-2,6-naphthyridin-1-yl)ethynyl)indolin-2-one], the pIC50 on CDK6/CCND1 (setting [4]) was 6.60 to 7.60.

For `CC1(C)C(=O)Nc2cc(C#Cc3nccc4cnc(Nc5ccc(S(=N)(=O)C6CCC6)cc5)cc34)ccc21` (single isomer, unassigned) [Ex 453, 6-((7-((4-(cyclobutanesulfonimidoyl)phenyl)amino)-2,6-naphthyridin-1-yl)ethynyl)-3,3-dimethylindolin-2-one], the pIC50 on CDK2/CCNE1 (CDK2/CCNE, x = IC50 <25 nM, read-out: CDK2/CCNE IC50 (<25 nM)) is > 7.60; on CDK1/CCNB1 (CDK1/CCNB, x = IC50 <25 nM, read-out: CDK1/CCNB IC50 (<25 nM)) it was > 7.60; on CDK6/CCND1 (setting [4]), 6.60 to 7.60. As to `CC(C)S(=N)(=O)c1ccc(Nc2cc3c(C#Cc4ccc5c(c4)NC(=O)C5(C)C)nccc3cn2)cc1` (single isomer, unassigned) [Ex 456, 3,3-dimethyl-6-((7-((4-(propan-2-ylsulfonimidoyl)phenyl)amino)-2,6-naphthyridin-1-yl)ethynyl)indolin-2-one], at CDK6/CCND1 (setting [5]), the pIC50 was < 6.60. Same read-out and setting: as for `CC1(CO)C(=O)Nc2cc(C#Cc3nccc4cnc(Nc5ccc(S(C)(=O)=O)cc5)cc34)ccc21` (single isomer, unassigned) [Example 373, 3-(hydroxymethyl)-3-methyl-6-((7-((4-(methylsulfonyl)phenyl)amino)-2,6-naphthyridin-1-yl)ethynyl)indolin-2-one], the figure is < 6.60; as for `Cc1c(-c2nccc3cnc(Nc4ccc(S(C)(=N)=O)cc4)cc23)ccc2nn(C)cc12` (single isomer, unassigned) [Example 546, (4-((5-(2,4-dimethyl-2H-indazol-5-yl)-2,6-naphthyridin-3-yl)amino)phenyl)(imino)(methyl)-λ^6-sulfanone], < 6.60. As to `Cc1c(-c2nccc3cnc(Nc4ccc(S(=O)(=O)Nc5cc(F)cc(C(C)(C)O)c5)cc4)cc23)ccc2c1cnn2CC(C)(C)O` [Ex 801, N-(3-fluoro-5-(2-hydroxypropan-2-yl)phenyl)-4-((5-(1-(2-hydroxy-2-methylpropyl)-4-methyl-1H-indazol-5-yl)-2,6-naphthyridin-3-yl)amino)benzenesulfonamide], the pIC50 is > 7.60 at CDK2/CCNE1 (<25 nM, CDK2/CCNE, read-out: CDK2/CCNE IC50, <25 nM); < 6.60 on CDK1/CCNB1 (>250 nM, CDK1/CCNB, read-out: CDK1/CCNB IC50 >250 nM); < 6.60 on CDK6/CCND1 (>250 nM, 1 mM ATP, read-out: CDK6/CCND IC50, >250 nM). As to `CS(=O)(=O)N1CCC(Nc2cc3c(N4CCCCC4)nc(CCO)cc3cn2)CC1` [Example 19, 2-(7-((1-(methylsulfonyl)piperidin-4-yl)amino)-1-(piperidin-1-yl)-2,6-naphthyridin-3-yl)ethan-1-ol], the pIC50 was 6.60 to 7.60 at CDK2/CCNE1 (CDK2/CCNE, 25-250 nM marked x, read-out: CDK2/CCNE IC50 25-250 nM) and < 6.60 at CDK1/CCNB1 (setting [2]). Regarding `Cc1cc2cnc(NC3CCN(S(C)(=O)=O)CC3)cc2c(N2CCCCC2)n1` [Example 25, 7-methyl-N-(1-(methylsulfonyl)piperidin-4-yl)-5-(piperidin-1-yl)-2,6-naphthyridin-3-amine], the pIC50 on CDK2/CCNE1 (setting [1]) and on CDK1/CCNB1 (setting [2]) was < 6.60 throughout. `CS(=O)(=O)c1ccc(Nc2cc3c(C4=CCCCC4)ccnc3cn2)cc1` [Example 951, 4-(cyclohex-1-en-1-yl)-N-(4-(methylsulfonyl)phenyl)-1,7-naphthyridin-6-amine]: the pIC50 on CDK2/CCNE1 (setting [6]) and at CDK1/CCNB1 (setting [7]) was < 6.60 in each case.

Turning to `CS(=O)(=O)c1ccc(Nc2ncc3cccc(C4=CCCCC4)c3n2)cc1` [Example 952, 8-(cyclohex-1-en-1-yl)-N-(4-(methylsulfonyl)phenyl)quinazolin-2-amine], the results for the pIC50 at CDK2/CCNE1 (setting [8]) and at CDK1/CCNB1 (setting [7]) were 6.60 to 7.60 and < 6.60, respectively. For the compound `CS(=O)(=O)c1ccc(Nc2cc3c(N4CCC(C#N)CC4)ccnc3cn2)cc1` [Example 959, 1-(6-((4-(methylsulfonyl)phenyl)amino)-1,7-naphthyridin-4-yl)piperidine-4-carbonitrile], the pIC50 at CDK2/CCNE1 (setting [6]) and on CDK1/CCNB1 (setting [7]) was < 6.60 throughout.

`CS(=O)(=O)c1ccc(Nc2cc3c(N4CCC(C#N)CC4)ncnc3cn2)cc1` [Example 960, 1-(6-((4-(methylsulfonyl)phenyl)amino)pyrido [3,4-d]pyrimidin-4-yl)piperidine-4-carbonitrile]: the pIC50 on CDK2/CCNE1 (setting [6]) and on CDK1/CCNB1 (setting [7]) was < 6.60 throughout.

Regarding `CS(=O)(=O)c1ccc(Nc2ncc3cccc(N4CCC(C#N)CC4)c3n2)cc1` [Example 961, 1-(2-((4-(methylsulfonyl)phenyl)amino)quinazolin-8-yl) piperidine-4-carbonitrile], the pIC50 at CDK2/CCNE1 (setting [8]) is 6.60 to 7.60; at CDK1/CCNB1 (setting [7]), < 6.60.
